Data from patent US9340590B2 (priority 2011, dated 2016).
Where two headings read alike, the source gives them in different places. Positions of bridges follow the written chain, without caps; N, C: chain ends. Non-standard residues stand in square brackets, D forms with d. Residues, ends and D or L forms follow the SMILES beside them. NMeF = CN[C@@H](Cc1ccccc1)C(=O)O; Cha = N[C@@H](CC1CCCCC1)C(=O)O

Legend:
Test in all cases: cell-based
hNav1.3 = hNav1.3 (Homo sapiens, UniProt Q9NY46); settings: IonWorks Quattro, read-out: IWQ Use Nav1.3
Sequence of hNav1.3 (Q9NY46 whole entry, looked up): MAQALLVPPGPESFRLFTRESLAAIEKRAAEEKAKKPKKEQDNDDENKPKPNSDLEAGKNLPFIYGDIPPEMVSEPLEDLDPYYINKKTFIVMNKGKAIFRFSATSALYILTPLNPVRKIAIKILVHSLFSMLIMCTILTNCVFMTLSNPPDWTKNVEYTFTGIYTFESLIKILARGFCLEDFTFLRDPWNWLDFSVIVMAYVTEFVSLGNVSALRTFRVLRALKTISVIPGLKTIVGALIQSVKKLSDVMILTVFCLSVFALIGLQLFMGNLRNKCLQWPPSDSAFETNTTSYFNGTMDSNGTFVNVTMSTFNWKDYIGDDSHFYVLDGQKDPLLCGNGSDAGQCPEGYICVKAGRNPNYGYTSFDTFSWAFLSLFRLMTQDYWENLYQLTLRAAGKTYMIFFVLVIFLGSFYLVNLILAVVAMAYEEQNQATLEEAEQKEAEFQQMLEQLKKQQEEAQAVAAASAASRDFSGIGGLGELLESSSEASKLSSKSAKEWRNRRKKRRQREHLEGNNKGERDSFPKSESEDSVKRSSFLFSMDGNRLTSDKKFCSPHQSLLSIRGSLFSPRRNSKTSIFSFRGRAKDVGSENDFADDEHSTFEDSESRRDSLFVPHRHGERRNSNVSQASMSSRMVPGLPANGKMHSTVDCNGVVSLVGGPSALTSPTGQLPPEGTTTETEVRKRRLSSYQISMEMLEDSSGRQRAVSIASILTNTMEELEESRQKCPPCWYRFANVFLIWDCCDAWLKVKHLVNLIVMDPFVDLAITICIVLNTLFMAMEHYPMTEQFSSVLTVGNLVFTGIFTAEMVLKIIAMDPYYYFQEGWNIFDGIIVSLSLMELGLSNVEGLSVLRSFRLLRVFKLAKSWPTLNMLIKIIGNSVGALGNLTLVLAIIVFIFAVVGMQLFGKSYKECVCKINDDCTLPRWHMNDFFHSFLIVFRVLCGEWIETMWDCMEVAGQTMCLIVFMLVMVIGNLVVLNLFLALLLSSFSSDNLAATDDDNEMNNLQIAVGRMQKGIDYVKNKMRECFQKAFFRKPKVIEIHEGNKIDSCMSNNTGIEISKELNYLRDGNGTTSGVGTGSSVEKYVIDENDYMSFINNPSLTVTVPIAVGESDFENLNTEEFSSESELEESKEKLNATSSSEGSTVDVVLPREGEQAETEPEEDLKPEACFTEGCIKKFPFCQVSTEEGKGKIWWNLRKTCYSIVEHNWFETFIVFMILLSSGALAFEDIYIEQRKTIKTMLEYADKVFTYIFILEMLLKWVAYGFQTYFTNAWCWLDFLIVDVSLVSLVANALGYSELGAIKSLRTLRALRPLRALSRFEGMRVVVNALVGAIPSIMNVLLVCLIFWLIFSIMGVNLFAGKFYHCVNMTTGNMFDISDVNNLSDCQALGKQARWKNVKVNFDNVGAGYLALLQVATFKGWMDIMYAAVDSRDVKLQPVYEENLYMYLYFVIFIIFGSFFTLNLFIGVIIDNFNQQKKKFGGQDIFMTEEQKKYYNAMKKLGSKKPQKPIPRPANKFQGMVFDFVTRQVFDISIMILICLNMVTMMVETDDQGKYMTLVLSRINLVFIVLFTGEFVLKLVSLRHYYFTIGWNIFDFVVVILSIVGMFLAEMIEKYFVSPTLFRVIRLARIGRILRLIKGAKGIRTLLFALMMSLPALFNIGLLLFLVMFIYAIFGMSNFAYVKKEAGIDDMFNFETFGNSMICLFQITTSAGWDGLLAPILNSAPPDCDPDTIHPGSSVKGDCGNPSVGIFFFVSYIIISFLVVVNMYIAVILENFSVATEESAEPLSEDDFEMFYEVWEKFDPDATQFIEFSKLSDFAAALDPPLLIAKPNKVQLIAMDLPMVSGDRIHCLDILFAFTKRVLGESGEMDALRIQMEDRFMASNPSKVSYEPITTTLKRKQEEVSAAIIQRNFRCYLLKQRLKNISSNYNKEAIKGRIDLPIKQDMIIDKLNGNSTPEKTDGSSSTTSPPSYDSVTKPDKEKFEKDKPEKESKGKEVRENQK

hNav1.7 = hNav1.7 (Homo sapiens, UniProt Q15858); type: cell-based; settings: IonWorks Quattro, read-out: IWQ Use Nav1.7
Sequence of hNav1.7 (Q15858 whole entry, looked up): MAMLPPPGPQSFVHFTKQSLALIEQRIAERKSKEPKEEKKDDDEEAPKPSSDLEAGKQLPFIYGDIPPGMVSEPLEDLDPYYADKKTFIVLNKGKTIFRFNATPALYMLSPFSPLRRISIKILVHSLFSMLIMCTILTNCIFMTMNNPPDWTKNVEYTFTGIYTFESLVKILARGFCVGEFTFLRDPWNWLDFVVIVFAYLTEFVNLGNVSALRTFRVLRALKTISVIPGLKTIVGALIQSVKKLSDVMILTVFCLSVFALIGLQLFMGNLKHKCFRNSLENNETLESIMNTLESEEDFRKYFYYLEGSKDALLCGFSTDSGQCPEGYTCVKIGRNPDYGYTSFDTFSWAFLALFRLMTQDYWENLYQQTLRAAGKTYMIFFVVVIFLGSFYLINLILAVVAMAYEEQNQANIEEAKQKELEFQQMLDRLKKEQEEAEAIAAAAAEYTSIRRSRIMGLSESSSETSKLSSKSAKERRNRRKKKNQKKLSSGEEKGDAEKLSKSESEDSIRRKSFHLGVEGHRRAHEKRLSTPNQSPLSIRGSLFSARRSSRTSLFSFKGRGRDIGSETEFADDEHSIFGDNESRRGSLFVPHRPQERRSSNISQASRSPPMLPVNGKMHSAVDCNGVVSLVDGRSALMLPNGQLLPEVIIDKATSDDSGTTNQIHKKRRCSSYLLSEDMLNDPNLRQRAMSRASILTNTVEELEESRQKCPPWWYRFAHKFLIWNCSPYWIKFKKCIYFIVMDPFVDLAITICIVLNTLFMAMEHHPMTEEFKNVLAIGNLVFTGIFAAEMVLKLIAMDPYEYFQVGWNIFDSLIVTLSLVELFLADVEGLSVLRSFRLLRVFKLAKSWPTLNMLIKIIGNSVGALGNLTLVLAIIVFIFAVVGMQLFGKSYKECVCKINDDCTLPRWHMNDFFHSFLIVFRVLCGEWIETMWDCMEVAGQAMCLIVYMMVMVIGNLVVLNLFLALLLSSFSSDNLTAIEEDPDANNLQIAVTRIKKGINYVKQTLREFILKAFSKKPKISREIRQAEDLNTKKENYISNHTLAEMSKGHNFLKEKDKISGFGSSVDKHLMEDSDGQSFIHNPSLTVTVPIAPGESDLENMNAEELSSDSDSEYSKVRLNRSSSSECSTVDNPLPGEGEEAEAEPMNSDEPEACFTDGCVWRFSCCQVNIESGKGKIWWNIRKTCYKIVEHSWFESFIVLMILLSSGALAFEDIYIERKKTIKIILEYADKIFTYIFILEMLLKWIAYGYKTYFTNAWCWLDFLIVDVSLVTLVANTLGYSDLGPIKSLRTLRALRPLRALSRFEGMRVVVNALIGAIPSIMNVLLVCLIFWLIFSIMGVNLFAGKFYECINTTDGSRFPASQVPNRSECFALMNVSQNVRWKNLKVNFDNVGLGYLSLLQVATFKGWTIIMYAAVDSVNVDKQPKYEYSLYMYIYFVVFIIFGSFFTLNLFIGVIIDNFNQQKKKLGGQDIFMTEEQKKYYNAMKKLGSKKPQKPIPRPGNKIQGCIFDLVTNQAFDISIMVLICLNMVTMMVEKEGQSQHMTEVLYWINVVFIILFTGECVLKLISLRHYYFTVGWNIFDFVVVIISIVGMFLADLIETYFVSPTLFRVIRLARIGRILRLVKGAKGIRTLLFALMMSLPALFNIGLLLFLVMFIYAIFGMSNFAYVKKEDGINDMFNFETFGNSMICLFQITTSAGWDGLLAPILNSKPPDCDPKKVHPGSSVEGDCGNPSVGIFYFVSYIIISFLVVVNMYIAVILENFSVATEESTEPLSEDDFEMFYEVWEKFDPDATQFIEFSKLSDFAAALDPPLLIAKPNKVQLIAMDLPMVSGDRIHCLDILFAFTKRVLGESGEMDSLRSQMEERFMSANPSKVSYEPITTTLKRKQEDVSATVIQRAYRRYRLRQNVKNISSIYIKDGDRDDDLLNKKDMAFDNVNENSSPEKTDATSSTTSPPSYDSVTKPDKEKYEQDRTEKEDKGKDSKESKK

hNav1.5 = hNav1.5 (Homo sapiens, UniProt Q14524); settings: IonWorks Quattro, read-out: IWQ Use Nav1.5

Compound: CC[C@H](C)[C@@H]1NC(=O)[C@@H]2CSSC[C@@H]3NC(=O)[C@H](C(C)C)NC(=O)[C@H](CC(C)C)NC(=O)[C@H](CC(N)=O)NC(=O)[C@@H]4CCCN4C(=O)[C@H](CCCNC(=N)N)NC(=O)[C@H](CSSC[C@H](NC(=O)[C@@H](N)CC(=O)O)C(=O)N[C@@H](CC(C)C)C(=O)NCC(=O)N[C@@H](Cc4ccccc4)C(=O)N[C@@H](CCSC)C(=O)N[C@@H](CCCNC(=N)N)C(=O)N[C@@H](CCCCN)C(=O)N2)NC(=O)[C@H](CSSC[C@@H](C(=O)N[C@@H](CCCCN)C(=O)N(C)[C@@H](Cc2ccccc2)C(=O)N[C@H](C(=O)N[C@@H](Cc2ccccc2)C(N)=O)C(C)C)NC(=O)[C@H](Cc2c[nH]c4ccccc24)NC(=O)[C@H](CCCCN)NC(=O)[C@H](Cc2c[nH]cn2)NC(=O)[C@H]([C@@H](C)O)NC(=O)[C@H](CCCNC(=N)N)NC(=O)[C@H](CO)NC3=O)NC(=O)[C@H](CCCCN)NC(=O)[C@H](CC(=O)O)NC(=O)[C@H](CC(N)=O)NC(=O)[C@H](CC(=O)O)NC(=O)[C@@H]2CCCN2C1=O [compound 370] (H-DCLGFMRKCIPDNDKCCRPNLVCSRTHKWCK[NMeF]VF-NH2; disulfide 2-17, 9-23, 16-30)
- IC50 (hNav1.3; Table 25, use, […]): > 5 µM
- IC50 (hNav1.7; Table 25, use, […]): > 5 µM
- IC50 (hNav1.5; Table 25, use, […]): > 5 µM

Compound: CC[C@H](C)[C@@H]1NC(=O)[C@@H]2CSSC[C@@H]3NC(=O)[C@H](C(C)C)NC(=O)[C@H](CC(C)C)NC(=O)[C@H](CC(N)=O)NC(=O)[C@@H]4CCCN4C(=O)[C@H](CCCNC(=N)N)NC(=O)[C@H](CSSC[C@H](NC(=O)[C@@H](N)CC(=O)O)C(=O)N[C@@H](CC(C)C)C(=O)NCC(=O)N[C@@H](Cc4ccccc4)C(=O)N[C@@H](CCSC)C(=O)N[C@@H](CCCNC(=N)N)C(=O)N[C@@H](CCCCN)C(=O)N2)NC(=O)[C@H](CSSC[C@@H](C(=O)N[C@@H](CCCCN)C(=O)N[C@@H](Cc2ccc(O)cc2)C(=O)N[C@H](C(=O)N[C@@H](Cc2ccccc2)C(N)=O)C(C)C)NC(=O)[C@H](Cc2c[nH]c4ccccc24)NC(=O)[C@H](CCCCN)NC(=O)[C@H](Cc2c[nH]cn2)NC(=O)[C@H]([C@@H](C)O)NC(=O)[C@H](CCCNC(N)=O)NC(=O)[C@H](CO)NC3=O)NC(=O)[C@H](CCCCN)NC(=O)[C@H](CC(=O)O)NC(=O)[C@H](CC(N)=O)NC(=O)[C@H](CC(=O)O)NC(=O)[C@@H]2CCCN2C1=O [compound 117]
- IC50 (hNav1.3; Use): 0.51 µM
- IC50 (hNav1.7; Use): 0.32 µM
- IC50 (hNav1.5; Use): 8.87 µM

Compound: CC[C@H](C)[C@@H]1NC(=O)[C@@H]2CSSC[C@@H]3NC(=O)[C@H](C(C)C)NC(=O)[C@H](CC(C)C)NC(=O)[C@H](CC(N)=O)NC(=O)[C@@H]4CCCN4C(=O)[C@H](CCCNC(=N)N)NC(=O)[C@H](CSSC[C@H](NC(=O)[C@@H](N)CC(=O)O)C(=O)N[C@@H](CC(C)C)C(=O)NCC(=O)N[C@@H](Cc4ccccc4)C(=O)N[C@@H](CCSC)C(=O)N[C@@H](CCCNC(=N)N)C(=O)N[C@@H](CCCCN)C(=O)N2)NC(=O)[C@H](CSSC[C@@H](C(=O)N[C@@H](CCCCN)C(=O)N[C@@H](CC2CCCCC2)C(=O)N[C@H](C(=O)N[C@@H](Cc2ccccc2)C(N)=O)C(C)C)NC(=O)[C@H](Cc2c[nH]c4ccccc24)NC(=O)[C@H](CCCCN)NC(=O)[C@H](Cc2c[nH]cn2)NC(=O)[C@H]([C@@H](C)O)NC(=O)[C@H](CCCNC(=N)N)NC(=O)[C@H](CO)NC3=O)NC(=O)[C@H](CCCCN)NC(=O)[C@H](CC(=O)O)NC(=O)[C@H](CC(N)=O)NC(=O)[C@H](CC(=O)O)NC(=O)[C@@H]2CCCN2C1=O [compound 375] (H-DCLGFMRKCIPDNDKCCRPNLVCSRTHKWCK[Cha]VF-NH2; disulfide 2-17, 9-23, 16-30)
- IC50 (hNav1.3; Table 25, use, […]): 0.02 µM
- IC50 (hNav1.7; Table 25, use, […]): 0.05 µM
- IC50 (hNav1.5; Table 25, use, […]): 8.88 µM

Compound: CC[C@H](C)[C@@H]1NC(=O)[C@@H]2CSSC[C@@H]3NC(=O)[C@H](C(C)C)NC(=O)[C@H](CC(C)C)NC(=O)[C@H](CC(N)=O)NC(=O)[C@@H]4CCCN4C(=O)[C@H](CCCNC(=N)N)NC(=O)[C@H](CSSC[C@H](NC(=O)[C@@H](N)CC(=O)O)C(=O)N[C@@H](CC(C)C)C(=O)NCC(=O)N[C@@H](C)C(=O)N[C@@H](CCSC)C(=O)N[C@@H](CCCNC(=N)N)C(=O)N[C@@H](CCCCN)C(=O)N2)NC(=O)[C@H](CSSC[C@@H](C(=O)N[C@@H](CCCCN)C(=O)N[C@@H](Cc2ccc(O)cc2)C(=O)N[C@@H](CCC(=O)O)C(=O)N[C@@H](Cc2ccccc2)C(N)=O)NC(=O)[C@H](Cc2c[nH]c4ccccc24)NC(=O)[C@H](CCCCN)NC(=O)[C@H](Cc2c[nH]cn2)NC(=O)[C@H]([C@@H](C)O)NC(=O)[C@H](CCCNC(=N)N)NC(=O)[C@H](CO)NC3=O)NC(=O)[C@H](CCCCN)NC(=O)[C@H](CC(=O)O)NC(=O)[C@H](CC(N)=O)NC(=O)[C@H](CC(=O)O)NC(=O)[C@@H]2CCCN2C1=O [compound 419] (H-DCLGAMRKCIPDNDKCCRPNLVCSRTHKWCKYEF-NH2; disulfide 2-17, 9-23, 16-30)
- IC50 (hNav1.3; use-dependent block, hNav1.3): 3.58 µM
- IC50 (hNav1.7; use-dependent block, hNav1.7): 4 µM
- IC50 (hNav1.5; use-dependent block, hNav1.5): 9.04 µM

Compound: CC[C@H](C)[C@@H]1NC(=O)[C@@H]2CSSC[C@@H]3NC(=O)[C@H](C(C)C)NC(=O)[C@H](CC(C)C)NC(=O)[C@H](CC(N)=O)NC(=O)[C@@H]4CCCN4C(=O)[C@H](CCCNC(=N)N)NC(=O)[C@H](CSSC[C@H](NC(=O)[C@@H](N)CC(=O)O)C(=O)N[C@@H](CC(C)C)C(=O)NCC(=O)N[C@@H](Cc4ccccc4)C(=O)N[C@@H](CCSC)C(=O)N[C@@H](CCCNC(=N)N)C(=O)N[C@@H](CCCCN)C(=O)N2)NC(=O)[C@H](CSSC[C@@H](C(=O)N[C@@H](CCCCN)C(=O)N[C@@H](Cc2c[nH]cn2)C(=O)N[C@H](C(=O)N[C@@H](Cc2ccccc2)C(N)=O)C(C)C)NC(=O)[C@H](Cc2c[nH]c4ccccc24)NC(=O)[C@H](CCCCN)NC(=O)[C@H](Cc2c[nH]cn2)NC(=O)[C@H]([C@@H](C)O)NC(=O)[C@H](CCCNC(=N)N)NC(=O)[C@H](CO)NC3=O)NC(=O)[C@H](CCCCN)NC(=O)[C@H](CC(=O)O)NC(=O)[C@H](CC(N)=O)NC(=O)[C@H](CC(=O)O)NC(=O)[C@@H]2CCCN2C1=O [compound 380] (H-DCLGFMRKCIPDNDKCCRPNLVCSRTHKWCKHVF-NH2; disulfide 2-17, 9-23, 16-30)
- IC50 (hNav1.3; Table 25, use, […]): 0.75 µM
- IC50 (hNav1.7; Table 25, use, […]): 0.6 µM
- IC50 (hNav1.5; Table 25, use, […]): 10.2 µM

Compound: CC[C@H](C)[C@@H]1NC(=O)[C@@H]2CSSC[C@@H]3NC(=O)[C@H](C(C)C)NC(=O)[C@H](CC(C)C)NC(=O)[C@H](CC(N)=O)NC(=O)[C@@H]4CCCN4C(=O)[C@H](CCCNC(=N)N)NC(=O)[C@H](CSSC[C@H](NC(=O)[C@@H](N)CC(=O)O)C(=O)N[C@@H](CC(C)C)C(=O)NCC(=O)N[C@@H](Cc4ccccc4)C(=O)N[C@@H](CCSC)C(=O)N[C@@H](CCCNC(=N)N)C(=O)N[C@@H](CCCCN)C(=O)N2)NC(=O)[C@H](CSSC[C@@H](C(=O)N[C@@H](CCCCN)C(=O)N[C@@H](Cc2ccc(O)cc2)C(=O)N[C@H](C(=O)N[C@@H](CCCCN)C(N)=O)C(C)C)NC(=O)[C@H](Cc2c[nH]c4ccccc24)NC(=O)[C@H](CCCCN)NC(=O)[C@H](Cc2cnc[nH]2)NC(=O)[C@H]([C@@H](C)O)NC(=O)[C@H](CCCNC(=N)N)NC(=O)[C@H](CO)NC3=O)NC(=O)[C@H](CCCCN)NC(=O)[C@H](CC(=O)O)NC(=O)[C@H](CC(N)=O)NC(=O)[C@H](CC(=O)O)NC(=O)[C@@H]2CCCN2C1=O [compound 59] (H-DCLGFMRKCIPDNDKCCRPNLVCSRTHKWCKYVK-NH2; disulfide 2-17, 9-23, 16-30)
- IC50 (hNav1.3; use-dependent, […]): 7.74 µM
- IC50 (hNav1.7; use-dependent, […]): 5.68 µM
- IC50 (hNav1.5; use-dependent, […]): 18.1 µM

Compound: CC[C@H](C)[C@@H]1NC(=O)[C@@H]2CCCN2C(=O)[C@H]([C@@H](C)CC)NC(=O)[C@@H]2CSSC[C@@H]3NC(=O)[C@H](C(C)C)NC(=O)[C@H](CC(C)C)NC(=O)[C@H](CC(N)=O)NC(=O)[C@@H]4CCCN4C(=O)[C@H](CCCNC(=N)N)NC(=O)[C@H](CSSC[C@H](NC(=O)[C@@H](N)CC(=O)O)C(=O)N[C@@H](CC(C)C)C(=O)NCC(=O)N[C@@H](Cc4ccccc4)C(=O)N[C@@H](CCSC)C(=O)N[C@@H](CCCNC(=N)N)C(=O)N[C@@H](CCCCN)C(=O)N2)NC(=O)[C@H](CSSC[C@@H](C(=O)N[C@@H](CCCCN)C(=O)N[C@@H](Cc2ccc(O)cc2)C(=O)N[C@H](C(=O)N[C@@H](Cc2ccccc2)C(N)=O)C(C)C)NC(=O)[C@H](Cc2c[nH]c4ccccc24)NC(=O)[C@H](CCCCN)NC(=O)[C@H](Cc2c[nH]cn2)NC(=O)[C@H]([C@@H](C)O)NC(=O)[C@H](CCCNC(=N)N)NC(=O)[C@H](CO)NC3=O)NC(=O)[C@H](CCCCN)NC(=O)[C@H](CC(=O)O)NC(=O)[C@H](CC(N)=O)NC1=O [compound 195] (H-DCLGFMRKCIPINDKCCRPNLVCSRTHKWCKYVF-NH2; disulfide 2-17, 9-23, 16-30)
- IC50 (hNav1.3; Use): 0.607 µM
- IC50 (hNav1.7; Use): 0.662 µM
- IC50 (hNav1.5; Use): 18.3 µM
